# Measurements taken from patent publication US20220324865A1 (Bayer Aktiengesellschaft, priority 2018, published 2022).
# pIC50: −log10 of the molar value.
# Biological target: T1, human EP3 receptor (Homo sapiens, UniProt P43115)
# T1 construct: expressed in transfected cells; host or cells: CHO K1 (Chinese Hamster Ovary), stably co-transfected with Galpha16 and mitochondrial clytin
# T1 sequence (P43115 1-390): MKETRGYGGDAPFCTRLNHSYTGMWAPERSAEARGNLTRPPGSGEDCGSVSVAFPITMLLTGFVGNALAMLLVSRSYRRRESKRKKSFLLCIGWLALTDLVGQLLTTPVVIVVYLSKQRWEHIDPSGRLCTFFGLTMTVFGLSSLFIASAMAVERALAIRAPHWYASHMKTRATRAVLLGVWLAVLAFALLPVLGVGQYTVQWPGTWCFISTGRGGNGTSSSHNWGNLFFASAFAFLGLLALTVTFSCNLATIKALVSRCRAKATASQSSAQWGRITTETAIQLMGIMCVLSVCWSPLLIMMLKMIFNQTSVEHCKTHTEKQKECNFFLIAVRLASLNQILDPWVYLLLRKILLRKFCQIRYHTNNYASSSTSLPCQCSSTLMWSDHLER
# Assay: Cellular in vitro assay for determining EP3 receptor activity (human EP3 cell line, sulprostone-stimulated calcium luminescence)
# Type: cell-based
# Conditions: CHO cells expressing human EP3 and mitochondrial Clytin; antagonist mode, sulprostone at EC50; read-out: EP3 CHO mtCLY ANTAG IC50
# Description: B-1. Cellular In Vitro Assay for Determining EP3 Receptor Activity
# The identification of antagonists of the EP3 receptor from humans and rats as well as the quantification of the activity of the compounds of the invention was carried out using recombinant cell lines. These cell lines originally derive from a hamsters ovary epithelial cell (Chinese Hamster Ovary, CHO K1, ATCC: American Type Culture Collection, Manassas, Va. 20108, USA). The test cell lines constitutively express the human or rat EP3 receptors. The naturally Gαi-coupled human and rat EP3 receptors were stably co-transfected with Gα16 into cells that are also stably transfected with a mitochondrial form of the calcium-sensitive photoproteins Clytin (human EP3) or Photina (rat EP3), which, after reconstitution with the cofactor coelenterazine, emit light when there are increases in free calcium concentrations (Nature 1992, 358, 325-327; Gene 1995, 153 (2), 273-274). The resulting EP3 receptor cells react to stimulation of the recombinantly expressed EP3 receptors by the agonist sulprostone with intracellular release of calcium ions, which can be quantified by the resulting photoprotein luminescence. Antagonists inhibit the receptor signaling, leading to reduced calcium release and luminescence. The bioluminescence of the cell lines is detected using a suitable luminometer (Trends Pharmacol. Sci. 1996, 17, 235-237).
# Human and Rat EP3 Cell Lines:
# On the day before the assay, the cells are plated out in culture medium (OptiMEM, 1% FCS, 2 mM glutamine, 10 mM HEPES, 5 μg/ml coelenterazine) in 384-well microtiter plates and kept in a cell incubator (96% humidity, 5% v/v CO2, 37° C.). On the day of the assay, test compounds in various concentrations are placed for 10 minutes in the wells of the microtiter plate before the agonist sulprostone at EC50 concentration is added. The resulting light signal is measured immediately in a luminometer. All concentrations are measured in quadruples.
row,SMILES,pIC50
1,"CC(NC(=O)c1cc2c(=O)[nH]c(-c3ccc4ccccc4c3)cn2n1)c1ccc(C(C)(C)C)cc1 (stereo not drawn) [Example 2-40, N-[1-(4-tert.-Butylphenyl)ethyl]-6-(2-naphthyl)-4-oxo-4,5-dihydropyrazolo[1,5-a]pyrazine-2-carboxamide]",8.50
2,"Cc1cccc2ncc(-c3cn4nc(C(=O)NC5(c6ccc(F)cc6)CN(C)C5)c(C(C)C)c4c(=O)[nH]3)cc12 [Example 1-25, N-[3-(4-Fluorophenyl)-1-methylazetidin-3-yl]-6-(5-methylquinolin-3-yl)-4-oxo-3-(propan-2-yl)-4,5-dihydropyrazolo[1,5-a]pyrazine-2-carboxamide]",8.24
3,"Cc1cc(C)nc(CNC(=O)c2nn3cc(-c4cnc5cccc(C)c5c4)[nH]c(=O)c3c2C(C)C)n1 [Example 4-60, N-[(4,6-Dimethylpyrimidin-2-yl)methyl]-6-(5-methylquinolin-3-yl)-4-oxo-3-(propan-2-yl)-4,5-dihydropyrazolo[1,5-a]pyrazine-2-carboxamide]",8.68
4,"COc1ccc(C2(NC(=O)c3cc4c(=O)[nH]c(-c5ccc(C)c(C)c5)cn4n3)CN(C(=O)OC(C)(C)C)C2)cc1 [Example 1-64, tert.-Butyl 3-({[6-(3,4-dimethylphenyl)-4-oxo-4,5-dihydropyrazolo[1,5-a]pyrazin-2-yl]carbonyl}-amino)-3-(4-methoxyphenyl)azetidine-1-carboxylate]",8.34
5,"CN1CC(NC(=O)c2nn3cc(-c4ccc(Cl)c(Cl)c4)[nH]c(=O)c3c2C2CC2)(c2ccc(F)cc2)C1 [Example 1-170, 3-Cyclopropyl-6-(3,4-dichlorophenyl)-N-[3-(4-fluorophenyl)-1-methylazetidin-3-yl]-4-oxo-4,5-dihydropyrazolo[1,5-a]pyrazine-2-carboxamide]",8.60
6,"CC(C)C(NC(=O)c1nn2cc(-c3ccc4ccccc4c3)[nH]c(=O)c2c1C#N)c1ccc(F)cc1 (stereo not drawn) [Example 3-59, 3-Cyano-N-[1-(4-fluorophenyl)-2-methylpropyl]-6-(2-naphthyl)-4-oxo-5H-pyrazolo[1,5-a]pyrazine-2-carboxamide]",8.90
7,"CC(C)C(NC(=O)c1cc2c(=O)[nH]c(-c3ccc4ccccc4c3)cn2n1)c1ccc(F)cc1 (stereo not drawn) [Example 2-48, N-[1-(4-Fluorophenyl)-2-methylpropyl]-6-(2-naphthyl)-4-oxo-4,5-dihydropyrazolo[1,5-a]pyrazine-2-carboxamide]",8.44
8,"COc1ccccc1C(C)NC(=O)c1nn2c(C)c(-c3ccc4ccccc4c3)[nH]c(=O)c2c1C (stereo not drawn) [Example 3-28, N-[1-(2-Methoxyphenyl)ethyl]-3,7-dimethyl-6-(2-naphthyl)-4-oxo-5H-pyrazolo[1,5-a]pyrazine-2-carboxamide]",8.37
9,"Cc1c(C(=O)NC(c2cccc(F)c2)C(F)F)nn2c(C)c(-c3ccc4ccccc4c3)[nH]c(=O)c12 (stereo not drawn) [Example 3-72, N-[2,2-Difluoro-1-(3-fluorophenyl)ethyl]-3,7-dimethyl-6-(2-naphthyl)-4-oxo-5H-pyrazolo[1,5-a]pyrazine-2-carboxamide]",8.68
10,"Cc1ccc(-c2cn3nc(C(=O)N[C@H](CCO)c4ccc(F)cc4)c(C(F)(F)F)c3c(=O)[nH]2)cc1C [Example 1-94, 6-(3,4-Dimethylphenyl)-N-[(1R)-1-(4-fluorophenyl)-3-hydroxpropyl]-4-oxo-3-(trifluoromethyl)-4,5-dihydropyrazolo[1,5-a]pyrazine-2-carboxamide]",9.12
11,"Cc1cccc2ncc(-c3cn4nc(C(=O)NC5CCS(=O)(=O)C5)c(C(C)C)c4c(=O)[nH]3)cc12 (stereo not drawn) [Example 4-12, N-(1,1-Dioxothiolan-3-yl)-3-isopropyl-6-(5-methyl-3-quinolyl)-4-oxo-5H-pyrazolo[1,5-a]pyrazine-2-carboxamide]",8.78
12,"Cc1cccc2ncc(-c3cn4nc(C(=O)NCCCS(C)(=O)=O)c(C(C)C)c4c(=O)[nH]3)cc12 [Example 4-35, N-[3-(Methansulfonyl)propyl]-6-(5-methylquinolin-3-yl)-4-oxo-3-(propan-2-yl)-4,5-dihydropyrazolo[1,5-a]pyrazine-2-carboxamide]",8.72
13,"Cc1c(C(=O)NC(C)c2ccccc2OC(F)F)nn2c(C)c(-c3ccc4ccccc4c3)[nH]c(=O)c12 (stereo not drawn) [Example 3-43, N-[1-[2-(Difluoromethoxy)phenyl]ethyl]-3,7-dimethyl-6-(2-naphthyl)-4-oxo-5H-pyrazolo[1,5-a]pyrazine-2-carboxamide]",8.41
14,"Cc1c(C(=O)NCC(C)Cn2cccn2)nn2c(C)c(-c3ccc4ccccc4c3)[nH]c(=O)c12 (stereo not drawn) [Example 3-7, 3,7-Dimethyl-N-[2-methyl-3-(1H-pyrazol-1-yl)propyl]-6-(2-naphthyl)-4-oxo-4,5-dihydropyrazolo[1,5-a]pyrazine-2-carboxamide]",8.87

# Results, then the compound that gave them:
row,pIC50,SMILES
1,8.48,CC(C)c1c(C(=O)N[C@@H](C)C2CC2)nn2cc(-c3ccc(Cl)c(F)c3)[nH]c(=O)c12 [6-539]
2,8.64,"Cc1ccc(-c2cn3nc(C(=O)NC(CO)C(F)(F)F)c(C(F)(F)F)c3c(=O)[nH]2)cc1Cl (single isomer, unassigned) [6-163]"
3,8.60,Cc1cccc2ncc(-c3cn4nc(C(=O)N[C@H](C)c5ccc(F)cc5)cc4c(=O)[nH]3)cc12 [6-64]
4,8.96,O=C(N[C@H](CCO)c1ccc(F)cc1)c1nn2cc(-c3cccc(Cl)c3)[nH]c(=O)c2c1C1CC1 [6-679]
5,8.89,O=C(NC1(c2ccc(F)cc2)CN(CC(F)F)C1)c1nn2cc(-c3ccc(Cl)c(F)c3)[nH]c(=O)c2c1C1CC1 [6-108]
6,8.30,Cc1cc(-c2cn3nc(C(=O)NC(c4ccc(F)cc4)C(C)(C)O)c(C4CC4)c3c(=O)[nH]2)ccc1C(F)(F)F (racemic) [6-133]
7,8.00,"CCN1CCC(NC(=O)c2nn3cc(-c4ccc(Cl)c(C)c4)[nH]c(=O)c3c2C2CC2)(C(F)(F)F)C1 (single isomer, unassigned) [6-294]"
8,8.17,"O=C(NC1CCN(C2CC2)C1)c1nn2cc(-c3ccc4ccccc4c3)[nH]c(=O)c2c1C(F)(F)F (single isomer, unassigned) [6-500]"
9,8.69,Cc1ccc(-c2cn3nc(C(=O)N[C@H](C)C(C)(C)C)c(C4CC4)c3c(=O)[nH]2)cc1Cl [6-281]
10,8.29,"Cc1ccc(-c2cn3nc(C(=O)NCC(O)C(F)(F)F)c(C)c3c(=O)[nH]2)cc1F (single isomer, unassigned) [6-410]"
11,8.82,Cc1cc(-c2cn3nc(C(=O)N[C@H](CN4CCOCC4)c4ccc(F)cc4)c(C4CC4)c3c(=O)[nH]2)ccc1Cl [6-337]
12,8.61,"COc1ccc(C(CCO)NC(=O)c2cc3c(=O)[nH]c(-c4ccc5c(c4)OCCO5)cn3n2)cc1 (stereo not drawn) [Example 5-3, 6-(2,3-Dihydro-1,4-benzodioxin-6-yl)-N-[3-hydroxy-1-(4-methoxyphenyl)propyl]-4-oxo-5H-pyrazolo[1,5-a]pyrazine-2-carboxamide]"
13,8.52,C[C@@H](NC(=O)c1cc2c(=O)[nH]c(-c3ccc4c(c3)ncn4C)cn2n1)c1ccc(F)cc1 [6-660]
14,8.84,Cc1ccc(-c2cn3nc(C(=O)N[C@@H](C)C(C)C)c(C(F)(F)F)c3c(=O)[nH]2)cc1Cl [6-187]
15,8.81,Cc1ccc(-c2cn3nc(C(=O)NCC(O)C(F)(F)F)c(C(F)(F)F)c3c(=O)[nH]2)cc1Cl (racemic) [6-158]
16,8.98,O=C(NCC(O)C(F)(F)F)c1nn2cc(-c3ccc(Cl)c(Cl)c3)[nH]c(=O)c2c1C1CC1 (racemic) [6-415]
17,8.24,"CCN1CCC(NC(=O)c2nn3cc(-c4ccc(Cl)c(C)c4)[nH]c(=O)c3c2C2CC2)(C(F)(F)F)C1 (single isomer, unassigned) [6-293]"
18,8.47,O=C(NCCN(CC(F)F)C1CC1)c1nn2cc(-c3ccc4ccccc4c3)[nH]c(=O)c2c1C(F)(F)F [6-527]
19,8.67,"Cc1ccc(-c2cn3nc(C(=O)NC(c4ccc(C(F)(F)F)cc4)C(C)(C)O)c(C4CC4)c3c(=O)[nH]2)cc1C (single isomer, unassigned) [6-458]"
20,8.87,Cc1ccc(-c2cn3nc(C(=O)N[C@H](CCO)c4ccc(F)cc4)cc3c(=O)[nH]2)cc1F [6-638]
21,8.76,O=C(N[C@@H](c1ccc(F)cc1)C(F)(F)CO)c1nn2cc(-c3ccc(Cl)c(F)c3)[nH]c(=O)c2c1C1CC1 [6-95]
22,8.15,Cc1cc(-c2cn3nc(C(=O)NCC(O)(C(F)(F)F)C(F)(F)F)c(C4CC4)c3c(=O)[nH]2)ccc1F [6-658]
